In US7247611B2, “Compositions and methods for promoting internalization and degradation of urokinase-type plasminogen activator” (The Trustees of the University of Pennsylvania, priority 1997, dated 2007):
“Also recorded” adds a separate entry of the source. One block for each substance: values may come before it.

Legend:
[1] = target: scuPA-uPAR complex (Homo sapiens, UniProt P00749); assay: scuPA-uPAR complex formation; type: binding
[2] = target: T1, PAI-1 (Homo sapiens, UniProt P05121); assay: Assessment of plasminogen activator activity (inhibition of PAI-1 activity, tcuPA as substrate of PAI-1); type: biochemical; conditions: 5 nanomolar tcuPA, 200 micromolar peptide, 25 nanomolar PAI-1; FIG. 4
T1 construct: purchased American Diagnostica, Inc. (Greenwich, Conn.)
Experimental: A solution comprising 5 nanomolar tcuPA, 0 or 200 micromolar peptide EEIIMD (SEQ ID NO: 3), and 0 or 200 micromolar peptide REIIMD (SEQ ID NO: 4) was incubated for thirty minutes. The solution was then added to a reaction mixture comprising 25 nanomolar PAI-1, 50 nanomolar Glu-plasminogen, and 50 micromolar chromogenic substrate, and the optical density of the mixture at 405 nanometers was measured continuously, as described (Higazi et al., 1996, Blood 87:3545-3549).

[3] = system: purified α2MR/LRP; assay: Solid phase binding assay of 125I-labeled ligands to immobilized purified α2MR/LRP
Experimental: To measure the binding of labeled ligands to α2MR/LRP, a 96-well microtiter plate was incubated with 3 micrograms per milliliter purified α2MR/LRP or with 3 micrograms per milliliter BSA in TBS containing 4 millimolar Ca^2+ overnight at 4° C. The buffer was removed, and the non-reacted sites on the plate were blocked using a blocking solution comprising TBS, 4 millimolar Ca^2+, 0.05% (v/v) Tween-20, and 3% (w/v) BSA. The wells of the plate were filled with the blocking solution and incubated for one hour at 4° C. Next, the blocking solution was removed, each well was filled with a solution comprising blocking solution and 0 or 200 nanomolar rRAP, and the plate was incubated at 4° C. for another hour. Binding of ^125I-labeled ligands to immobilized α2MR/LRP was determined as described (Higazi et al., 1996, Blood 88:542-551; Nykjaer et al., 1993, J. Biol. Chem. 268:15048-15055).

[4] = system: LM-TK^− cells; assay: Internalization and degradation of 125I-scuPA by LM-TK^− cells; type: cell-based
Experimental: LM-TK^− cells were grown overnight at 37° C. to confluence in 48-well Falcon™ Multiwell tissue culture dishes (Becton Dickinson, Lincoln Park, N.J.). Cells were prechilled on ice for one hour, washed twice with a buffer comprising TBS, 4 millimolar Ca^2+, and 3% (w/v) BSA, and incubated for one hour at room temperature with the same buffer or with buffer supplemented with either 400 nanomolar rRAP or 100 micrograms per milliliter IgG anti-α2MR/LRP. The buffer was removed, ^125I -scuPA was added to the cells, and the cells were incubated for two hours at 4° C. in the presence of 0-300 micromolar peptide, 0 or 400 nanomolar rRAP, and 0 or 100 micrograms per milliliter anti-α2MR/LRP. Unbound ligand was removed and cells were washed five times with the buffer. DMEM comprising 4 millimolar Ca^2+, 0 or 400 nanomolar rRAP, and 0 or 100 micrograms per milliliter anti-α2MR/LRP was added to the cells, and the cells were incubated for eighteen hours at 37° C. […] Briefly, to measure internalization, cells were washed twice with the buffer, a solution comprising 50 millimolar glycine 150 millimolar NaCl at pH 3.0 was added to the cells, and the cells were incubated for fifteen minutes at 4° C. to dissociate cell surface-bound ligands. […] Radioactivity in the cell extract was assessed.

[5] = system: LM-TK^− cells (α2MR^+/LRP, uPAR^−); assay: Ligand binding assay: binding of 125I-labeled scuPA, tcuPA and their suPAR complexes to LM-TK^− cells; type: cell-based; conditions: for promotion of scuPA binding to LM-TK^− cells: 1B
Experimental: Briefly, LM-TK^− cells were suspended in DMEM (GIBCO, Grand Island, N.Y.) containing 10% (v/v) fetal calf serum and were grown to confluence at 37° C. overnight in 96-well Falcon™ multiwell tissue culture dishes (Becton Dickinson, Lincoln Park, N.J.). The cells were chilled for one hour on ice and were washed twice with chilled binding buffer. ^125I-labeled ligands, with or without 50-fold molar excess of non-labeled ligands, were added to the cells in the presence or absence of 0-300 micromolar peptide, and the cell cultures were incubated for two hours at 4° C. The cells were washed four times with binding buffer, solubilized in 0.1 N NaOH, and the cell extract was assessed for radioactivity. […] Assays were repeated at least three times, and data presented herein represent the mean and standard deviation.

effect on scuPA-uPAR complex formation [1]: did not affect
effect on binding of tcuPA to purified α2MR/LRP [3]: had no effect
effect on binding of the scuPA-suPAR complex to α2MR/LRP [3]: had no effect
EC50 ([5]; read-out: peptide concentration for half maximal stimulation of scuPA binding to LM-TK^− cells, FIG. 1B): ~50 µM
Substance: EEIIMD [hexapeptide homologous with amino acids 350-355 of PAI-1]
inhibition of PAI-1 activity [2]: inhibits PAI-1 activity; also recorded: competitive inhibitor of PAI-1 binding to tcuPA
effect on binding of scuPA to purified α2MR/LRP ([3]; FIG. 5A): promoted binding of scuPA to purified α2MR/LRP
effect on internalization and degradation of scuPA by LM-TK^− cells ([4]; eighteen hours at 37° C., FIG. 6): promoted both internalization and degradation; also recorded: accelerated the rate of internalization and degradation
effect on binding of tcuPA to LM-TK^− cells [5]: failed to stimulate binding of tcuPA; also recorded: had no effect
promotion of scuPA binding to LM-TK^− cells ([5]; FIG. 1A): promoted binding
peptide concentration giving near-maximal effect on scuPA binding to LM-TK^− cells ([5]; FIG. 1B): approximately 300 micromolar
effect on binding of the scuPA-suPAR complex to LM-TK^− cells ([5]; FIG. 3): minimal increase
effect on binding of the tcuPA-suPAR complex to LM-TK^− cells ([5]; FIG. 3): had no effect
increase in the value of Bmax for scuPA binding to LM-TK^− cells ([5]; presence versus absence of the peptide, two hours at 4° C.): four-fold
scuPA-binding-promoting effect in the presence of PAI-1 ([5]; scuPA preincubated with PAI-1, FIG. 2): identical to the effect observed in the absence of PAI-1

inhibition of PAI-1 activity [2]: did not inhibit PAI-1 activity
Substance: EEIIMR [hexapeptide, carboxyl terminal Asp of EEIIMD substituted by Arg; control peptide]
scuPA-binding-promoting activity relative to that of peptide EEIIMD ([5]; LM-TK^− cells, FIG. 1A): approximately 20%

Substance: REIIMD [hexapeptide, amino terminal Glu of EEIIMD substituted by Arg]
promotion of scuPA binding to LM-TK^− cells ([5]; FIG. 1A): nearly as potent a promoter of scuPA binding to LM-TK^− cells as was peptide EEIIMD

effect on EEIIMD-promoted binding of scuPA to purified α2MR/LRP ([3]; 200 nanomolar rRAP, FIG. 5A): inhibited
Substance: rRAP: recombinant 39 kilodalton α2MR/LRP. (receptor-associated protein), inhibits ligand binding to α2MR/LRP [reference compound]
inhibition of EEIIMD-promoted scuPA internalization and degradation by LM-TK^− cells ([4]; 400 nanomolar rRAP): approximately 70%
inhibition of EEIIMD-promoted binding of scuPA to LM-TK^− cells ([5]; 400 nanomolar rRAP, FIG. 5B): approximately 70%
